According to paper PMC12860872, “Preclinical evaluation of DOTAGA.Glu.(FAPI)2 and DO3A.Glu.(FAPI)2 as theranostics with human dosimetry extrapolation to lutetium-177 and terbium-161 analogs” (European Journal of Nuclear Medicine and Molecular Imaging, 2025):
Where “and” joins values, the source holds several entries; their conditions need not be identical. Equal values may be shown once.

Assays:
FAP [1] = tested on: FAP; parameters: method as in Martin et al. 2023 (15); conditions: enzymatic assay; ref Martin et al. 2023 (15); cited from earlier work
PC3-mice = assay: Biodistribution in PC3-mice incl. blocking; format: in vivo, mouse
Method: Male athymic Balb/C nude mice (6 weeks/20–25 g) were implanted with PC3 cells (3.5 × 10^6/100 µL PBS) into their right shoulder to develop tumors. The animals were used for biodistribution and PET/SPECT/CT imaging studies, once tumors reached 250–300 mm^3.
All mice were euthanized with intraperitoneal injection of pentobarbital (150 mg/kg), and selected organs were dissected, weighed, and measured for radioactivity using a gamma-counter. Results are expressed as % injected activity per gram tissue (% I.A./g), presented as mean ± SD (n = 3–4).

DPP9 = tested on: DPP9; parameters: method as in Martin et al. 2023 (15); conditions: ref Martin et al. 2023 (15); cited from earlier work
PREP = tested on: PREP; parameters: method as in Martin et al. 2023 (15); conditions: ref Martin et al. 2023 (15); cited from earlier work
DPP4 = tested on: DPP4; parameters: method as in Martin et al. 2023 (15); conditions: ref Martin et al. 2023 (15); cited from earlier work
DPP8 = tested on: DPP8; parameters: method as in Martin et al. 2023 (15); conditions: ref Martin et al. 2023 (15); cited from earlier work
FAP [2] = biological target: T1, FAP (Homo sapiens, UniProt Q12884); assay: Saturation binding on FAP+ CAFs; conditions: listed as 68/natGa-DOTAGA.Glu.(FAPI)2
T1 construct: the CAF cells overexpressing FAP were seeded at a density of 0.8-1 million cells per well; host or cells: hTERT PF179T prostate cancer-associated fibroblasts
T1 sequence (Q12884 1-760): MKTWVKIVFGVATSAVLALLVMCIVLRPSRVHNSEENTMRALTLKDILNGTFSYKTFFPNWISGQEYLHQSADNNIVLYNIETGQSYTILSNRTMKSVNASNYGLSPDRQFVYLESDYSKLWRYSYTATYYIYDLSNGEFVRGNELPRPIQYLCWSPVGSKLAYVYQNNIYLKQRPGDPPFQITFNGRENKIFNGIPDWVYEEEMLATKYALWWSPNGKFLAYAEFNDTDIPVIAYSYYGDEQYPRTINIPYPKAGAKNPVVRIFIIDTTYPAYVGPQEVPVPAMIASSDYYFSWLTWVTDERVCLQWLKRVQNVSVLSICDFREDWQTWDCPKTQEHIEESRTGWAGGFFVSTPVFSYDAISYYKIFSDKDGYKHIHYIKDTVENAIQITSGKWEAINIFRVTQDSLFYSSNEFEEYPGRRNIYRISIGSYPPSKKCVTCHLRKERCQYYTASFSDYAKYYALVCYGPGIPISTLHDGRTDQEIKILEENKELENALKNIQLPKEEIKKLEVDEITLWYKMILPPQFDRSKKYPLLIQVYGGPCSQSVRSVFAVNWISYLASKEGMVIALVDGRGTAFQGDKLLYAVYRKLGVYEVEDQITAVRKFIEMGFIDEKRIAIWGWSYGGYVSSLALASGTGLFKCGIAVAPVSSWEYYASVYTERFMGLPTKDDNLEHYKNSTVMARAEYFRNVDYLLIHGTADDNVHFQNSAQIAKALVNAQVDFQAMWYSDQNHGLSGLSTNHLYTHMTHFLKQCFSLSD
Method: For receptor saturation studies, FAP^+ CAFs were incubated with 0.1 to 10 nM of the radioligands. For internalization studies, approximately 2.5 pmol of the radioligands were added to CAFs followed by incubation for 15, 30, 60, 90, 120, 180 and 240 min for the ^68Ga-labeled or 30, 60, 120, 240 and 360 min for the ^177Lu-labeled radioligands at 37 °C, 5% CO2. For the externalization studies, approximately 2.5 pmol of the ^177Lu-labeled radioligands were added to CAFs followed by incubation for 2 h at 37 °C, 5% CO2. The amount of externalized activity was measured at 0, 10, 20, 30, 60, 120, 240, and 1440 min (Supplemental Data).
For receptor saturation analysis, the CAF cells overexpressing FAP were seeded at a density of 0.8-1 million cells per well in 6-well plates, pre-coated with BME (Cultrex Reduced Growth Factor Basement Membrane Extract, RGF BME, R&D System, Minneapolis, USA) to enhance cell attachment. The cells were incubated overnight with medium (EMEM supplemented and containing 10% FBS, 100 U/mL penicillin and 100 μg/mL streptomycin). The next day, the medium was removed and the cells were incubated for 30 minutes at 37 °C, with 0.8 mL of fresh medium. Afterwards, the plates were placed on ice for 30 minutes followed by incubation with increasing concentrations of ^68/natGa- and ^177/natLu-labelled DOTAGA.Glu.(FAPI)2 and DO3A.Glu.( FAPI)2 (0.1-10 nM final concentration in the wells). After the addition of the radioligands, the cells were incubated for 120 minutes at 4 °C. Non-specific binding was determined in the presence of UAMC1110 at a final concentration of 1 μM. After the completion of the incubation, the cells were washed twice with ice-cold PBS, followed by solubilization with 1 M NaOH. The cell-associated radioactivity was measured using a gamma-counter. Specific binding was plotted against the total molar concentration of the added radiotracer. The Kd values and the concentration of the radioligand required to saturate the receptors (Bmax) were determined by nonlinear regression using GraphPad (Prism 8 Graph Pad Software, San Diego, CA). For all the cell studies the values are normalized for 1x10^6 cells per well and all data are from two independent experiments with triplicates in each experiment.

[3] = PC3-model, labeled with gallium-68
[4] = PC3-model, labeled with lutetium-177
[5] = PC3-mice, Blocking 1h (20 nmol unlabeled precursor)

## N#C[C@@H]1CC(F)(F)CN1C(=O)CNC(=O)c1ccnc2ccc(OCCCCNC(=O)CC[C@H](NC(=O)CN3CCN(CC(=O)O)CCN(CC(=O)O)CCN(CC(=O)O)CC3)C(=O)NCCCCOc3ccc4nccc(C(=O)NCC(=O)N5CC(F)(F)C[C@H]5C#N)c4c3)cc12 [DO3A.Glu.(FAPI)2]
FAP [1]
  IC50: 0.6 ± 0.04 nM
PC3-mice; [3]
  tumor uptake: ~ 20%
PC3-mice; [4]
  tumor uptake: ~ 16%
DPP9
  IC50: 950 ± 110 nM
PREP
  IC50: 1000 ± 140 nM
DPP4
  IC50: 540 ± 60 nM
DPP8
  IC50: 1030 ± 180 nM

## N#C[C@@H]1CC(F)(F)CN1C(=O)CNC(=O)c1ccnc2ccc(OCCCCNC(=O)CC[C@H](NC(=O)CCC(C(=O)O)N3CCN(CC(=O)O)CCN(CC(=O)O)CCN(CC(=O)O)CC3)C(=O)NCCCCOc3ccc4nccc(C(=O)NCC(=O)N5CC(F)(F)C[C@H]5C#N)c4c3)cc12 (stereo partly drawn) [DOTAGA.Glu.(FAPI)2]
FAP [1]
  IC50: 0.26 ± 0.04 nM
PC3-mice; [3]
  tumor uptake: ~ 20%
PC3-mice; [4]
  tumor uptake: ~ 16%
DPP9
  IC50: 83 ± 1.5 nM
PREP
  IC50: 590 ± 100 nM
DPP4
  IC50: 1190 ± 80 nM
DPP8
  IC50: 29 ± 4 nM

## N#C[C@@H]1CC(F)(F)CN1C(=O)CNC(=O)c1ccnc2ccccc12 [UAMC-1110, reference compound]
FAP [1]
  IC50: 0.43 ± 0.02 nM
DPP8
  IC50: > 10000 nM

## N#C[C@@H]1CC(F)(F)CN1C(=O)CNC(=O)c1ccnc2ccc(OCCCCNC(=O)CC[C@H](NC(=O)CCC(C(=O)O)N3CCN(CC(=O)[O-])CCN(CC(=O)[O-])CCN(CC(=O)[O-])CC3)C(=O)NCCCCOc3ccc4nccc(C(=O)NCC(=O)N5CC(F)(F)C[C@H]5C#N)c4c3)cc12.[68Ga+3] (stereo partly drawn) [[^68Ga]Ga-DOTAGA.Glu.(FAPI)2]
PC3-mice; PC3-mice, 1 h p.i.
  Uptake in Adrenal: 3.6±0.6 %I.A./g
  Uptake in Blood: 3.5 ± 0.2 %I.A./g
  Uptake in Bone: 4.9±0.8 %I.A./g
  Uptake in Gallbladder: 3.2±0.6 %I.A./g
  Uptake in Heart: 1.6±0.2 %I.A./g
  Uptake in Intestine: 1.4±0.2 %I.A./g
  Uptake in Kidney: 8.3±0.7 %I.A./g
  Uptake in Liver: 3±0.4 %I.A./g
  Uptake in Lung: 3.7±0.6 %I.A./g
  Uptake in Muscle: 1.9±0.2 %I.A./g
  Uptake in Pancreas: 2.5±0.2 %I.A./g
  Uptake in Salivary glands: 8.2±0.5 %I.A./g
  Uptake in Spleen: 1.6±0.01 %I.A./g
  Uptake in Stomach: 1.3±0.2 %I.A./g
  Uptake in Tumor: 18.2 ± 2.3 %I.A./g and 18.2±3.8 %I.A./g
PC3-mice; PC3-mice, 2 h p.i.
  Uptake in Adrenal: 4.2±0.2 %I.A./g
  Uptake in Blood: 2.6±0.1 %I.A./g
  Uptake in Bone: 6.4±1.2 %I.A./g
  Uptake in Gallbladder: 2.3±0.4 %I.A./g
  Uptake in Heart: 1±0.01 %I.A./g
  Uptake in Intestine: 1±0.03 %I.A./g
  Uptake in Kidney: 4.8±0.5 %I.A./g
  Uptake in Liver: 1.4±0.04 %I.A./g
  Uptake in Lung: 1.7±0.2 %I.A./g
  Uptake in Muscle: 1.7±0.3 %I.A./g
  Uptake in Pancreas: 2.3±0.1 %I.A./g
  Uptake in Salivary glands: 6.5±1.1 %I.A./g
  Uptake in Spleen: 1±0.1 %I.A./g
  Uptake in Stomach: 0.9±0.04 %I.A./g
  Uptake in Tumor: 17.8 ± 0.5 %I.A./g
PC3-mice; PC3-mice, 3 h p.i.
  Uptake in Adrenal: 3.9±2 %I.A./g
  Uptake in Blood: 2.5 ± 0.1 %I.A./g
  Uptake in Bone: 6.7±0.1 %I.A./g
  Uptake in Gallbladder: 2.6±1.1 %I.A./g
  Uptake in Heart: 1±0.2 %I.A./g
  Uptake in Intestine: 1.1±0.1 %I.A./g
  Uptake in Kidney: 4.4±0.4 %I.A./g
  Uptake in Liver: 1.6±0.2 %I.A./g
  Uptake in Lung: 1.4±0.1 %I.A./g
  Uptake in Muscle: 1.6±0.2 %I.A./g
  Uptake in Pancreas: 2±0.1 %I.A./g
  Uptake in Salivary glands: 6±0.1 %I.A./g
  Uptake in Spleen: 1.1±0.2 %I.A./g
  Uptake in Stomach: 1±0.1 %I.A./g
  Uptake in Tumor: 18.4 ± 2.2 %I.A./g and 18.4±2.1 %I.A./g
PC3-mice; [5]
  Uptake in Adrenal: 0.7±0.1 %I.A./g
  Uptake in Blood: 1.7±0.5 %I.A./g
  Uptake in Bone: 0.3±0.2 %I.A./g
  Uptake in Gallbladder: 5.5±0.6 %I.A./g
  Uptake in Heart: 0.6±0.1 %I.A./g
  Uptake in Intestine: 0.6±0.3 %I.A./g
  Uptake in Kidney: 5.6±1.8 %I.A./g
  Uptake in Liver: 0.6±0.2 %I.A./g
  Uptake in Lung: 1.3±0.5 %I.A./g
  Uptake in Muscle: 0.2±0.1 %I.A./g
  Uptake in Pancreas: 0.3±0.1 %I.A./g
  Uptake in Salivary glands: 0.7±0.1 %I.A./g
  Uptake in Spleen: 0.5±0.1 %I.A./g
  Uptake in Stomach: 0.5±0.1 %I.A./g
  Uptake in Tumor: 1.4±0.5 %I.A./g
PC3-mice; PC3-mice, sustained up to 3 h p.i.
  tumor uptake: 18–19 %I.A./g
FAP [2]; 0.1 to 10 nM radioligand
  Kd: 0.8 nM and 0.77 nM
FAP [2]
  Bmax: 0.7 ± 0.04 nM and 0.67 ± 0.04 nM

## N#C[C@@H]1CC(F)(F)CN1C(=O)CNC(=O)c1ccnc2ccc(OCCCCNC(=O)CC[C@H](NC(=O)CCC(C(=O)O)N3CCN(CC(=O)[O-])CCN(CC(=O)[O-])CCN(CC(=O)[O-])CC3)C(=O)NCCCCOc3ccc4nccc(C(=O)NCC(=O)N5CC(F)(F)C[C@H]5C#N)c4c3)cc12.[Lu+3] (stereo partly drawn) [[^natLu]Lu-DOTAGA.Glu.(FAPi)2]
FAP [1]
  IC50: 0.33 ± 0.02 nM
DPP9
  IC50: 190 ± 10 nM
PREP
  IC50: 430 ± 160 nM
DPP4
  IC50: 650 ± 40 nM
DPP8
  IC50: 220 ± 20 nM
